Data reported in PubChem BioAssay (NCI).
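Step 1: Grow cells in 96-well plates. Step 2: Expose to compound for 48 hours at 5 concentrations. Step 3: Interpolate endpoints linearly; if unreached, use highest concentration. The concentration for 50% growth inhibition is given as GI50. TGI: concentration producing complete growth inhibition.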

Columns and labels:
Assay in all cases: inhibition of tumour cell growth, NCI panel, 48 h
[1] = system: SF-295 CNS
[2] = system: SW-620 colon
[3] = system: 786-0 renal
[4] = system: KM20L2 colon
[5] = system: CCRF-CEM leukemia
[6] = system: RXF 393 renal
[7] = system: OVCAR-5 ovarian
[8] = system: MOLT-4 leukemia
[9] = system: SNB-75 CNS
[10] = system: HCT-15 colon
[11] = system: COLO 205 colon
[12] = system: M19-MEL melanoma
[13] = system: OVCAR-8 ovarian
[14] = system: HOP-18 NSCLC
[15] = system: A549 NSCLC
[16] = system: RXF-631 renal
[17] = system: A498 renal
[18] = system: KM12 colon
[19] = system: SNB-19 CNS
[20] = system: HCC-2998 colon
[21] = system: LXFL 529 NSCLC
[22] = system: HOP-92 NSCLC
[23] = system: SK-MEL-28 melanoma
[24] = system: OVCAR-4 ovarian
[25] = system: UACC-257 melanoma
[26] = system: SN12C renal
[27] = system: XF 498 CNS
[28] = system: DMS 114 small cell lung
[29] = system: IGROV1 ovarian
[30] = system: HL-60(TB) leukemia
[31] = system: SF-539 CNS
[32] = system: DLD-1 colon
[33] = system: HOP-62 NSCLC
[34] = system: SNB-78 CNS
[35] = system: TK-10 renal
[36] = system: CAKI-1 renal
[37] = system: K-562 leukemia
[38] = system: NCI-H23 lung
[39] = system: SK-OV-3 ovarian
[40] = system: SK-MEL-2 melanoma
[41] = system: UO-31 renal
[42] = system: NCI-H226 lung
[43] = system: M14 melanoma
[44] = system: OVCAR-3 ovarian
[45] = system: EKVX NSCLC
[46] = system: SR leukemia
[47] = system: BT-549 breast
[48] = system: NCI-H460 lung
[49] = system: T-47D breast
[50] = system: SK-MEL-5 melanoma
[51] = system: MDA-MB-435
[52] = system: MALME-3M melanoma
[53] = system: PC-3 prostate
[54] = system: SF-268 CNS
[55] = system: HS 578T breast
[56] = system: RPMI-8226 leukemia
[57] = system: UACC-62 melanoma
[58] = system: U251 CNS
[59] = system: MDA-N
[60] = system: LOX IMVI melanoma
[61] = system: HT29 colon
[62] = system: DU-145 prostate
[63] = system: DMS 273 small cell lung
[64] = system: MCF7 breast
[65] = system: ACHN renal
[66] = system: HCT-116 colon

O=C1OC(c2cccc(C(F)(F)F)c2)c2ccc3ccccc3c21 (centres undefined)
TGI [1]: > 100 µM | GI50 [2]: > 100 µM | TGI [2]: > 100 µM | GI50 [3]: > 100 µM | TGI [3]: > 100 µM | GI50 [4]: > 100 µM | TGI [4]: > 100 µM | GI50 [5]: 5.19 µM | TGI [5]: > 100 µM | TGI [6]: > 100 µM | GI50 [7]: > 100 µM | TGI [7]: > 100 µM | GI50 [8]: 4.99 µM | TGI [8]: > 100 µM | TGI [9]: > 100 µM | GI50 [10]: 6.21 µM | TGI [10]: > 100 µM | GI50 [11]: > 100 µM | TGI [11]: > 100 µM | GI50 [12]: > 100 µM | TGI [12]: > 100 µM | GI50 [13]: > 100 µM | TGI [13]: > 100 µM | GI50 [14]: > 100 µM | TGI [14]: > 100 µM | TGI [15]: > 100 µM | GI50 [16]: > 100 µM | TGI [16]: > 100 µM | GI50 [17]: > 100 µM | TGI [17]: > 100 µM | GI50 [18]: > 100 µM | TGI [18]: > 100 µM | GI50 [19]: > 100 µM | TGI [19]: > 100 µM | GI50 [20]: > 100 µM | TGI [20]: > 100 µM | TGI [21]: > 100 µM | TGI [22]: > 100 µM | GI50 [23]: > 100 µM | TGI [23]: > 100 µM | GI50 [24]: > 100 µM | TGI [24]: > 100 µM | GI50 [25]: 8.64 µM | TGI [25]: > 100 µM | GI50 [26]: > 100 µM | TGI [26]: > 100 µM | TGI [27]: > 100 µM | TGI [28]: > 100 µM | GI50 [29]: > 100 µM | TGI [29]: > 100 µM | TGI [30]: > 100 µM | TGI [31]: > 100 µM | TGI [32]: > 100 µM | GI50 [33]: > 100 µM | TGI [33]: > 100 µM | TGI [34]: > 100 µM | GI50 [35]: > 100 µM | TGI [35]: > 100 µM | GI50 [36]: > 100 µM | TGI [36]: > 100 µM | GI50 [37]: 25 µM | TGI [37]: > 100 µM | TGI [38]: > 100 µM | GI50 [39]: > 100 µM | TGI [39]: > 100 µM | GI50 [40]: > 100 µM | TGI [40]: > 100 µM | TGI [41]: > 100 µM | GI50 [42]: > 100 µM | TGI [42]: > 100 µM | GI50 [43]: > 100 µM | TGI [43]: > 100 µM | GI50 [44]: > 100 µM | TGI [44]: > 100 µM | GI50 [45]: > 100 µM | TGI [45]: > 100 µM

C=C(CN(C)C)C(=O)c1ccc(OC2OC(COC(C)=O)C(OC(C)=O)C(OC(C)=O)C2OC(C)=O)cc1 (centres undefined)
TGI [46]: 4.94 µM | TGI [1]: 36 µM | TGI [2]: 3.17 µM | TGI [47]: 10.8 µM | TGI [3]: 3.82 µM | TGI [48]: 40.8 µM | TGI [4]: 40.8 µM | TGI [5]: 0.342 µM | TGI [49]: 15.7 µM | TGI [6]: 3.69 µM | TGI [50]: 20.3 µM | TGI [51]: 14.2 µM | TGI [7]: 37.4 µM | TGI [9]: 38.5 µM | TGI [10]: 11.3 µM | TGI [11]: 3.17 µM | TGI [13]: 19.2 µM | TGI [14]: 9.82 µM | TGI [52]: 7.51 µM | TGI [53]: 32 µM | TGI [54]: 62 µM | TGI [15]: 45.2 µM | TGI [55]: > 83.7 µM | TGI [16]: 29.3 µM | TGI [17]: 21 µM | TGI [18]: 41.6 µM | TGI [56]: > 100 µM | TGI [19]: 39.4 µM | TGI [20]: 36.8 µM | TGI [21]: 2.9 µM | TGI [23]: 9.22 µM | TGI [24]: > 29.2 µM | TGI [25]: 5.94 µM | TGI [26]: 26.2 µM | TGI [57]: 22.4 µM | TGI [27]: 9.77 µM | TGI [58]: 46.2 µM | TGI [59]: 11.1 µM | TGI [28]: 14.6 µM | TGI [29]: 36.1 µM | TGI [30]: > 100 µM | TGI [31]: 30.6 µM | TGI [60]: 8.49 µM | TGI [32]: 3.83 µM | TGI [33]: 24.3 µM | TGI [34]: 50.8 µM | TGI [61]: 12.2 µM | TGI [62]: 31.3 µM | TGI [35]: 7.06 µM | TGI [36]: 9.54 µM | TGI [37]: 0.474 µM | TGI [63]: > 51.7 µM | TGI [38]: 43.3 µM | TGI [64]: 5.51 µM | TGI [39]: 35.5 µM | TGI [40]: 33.3 µM | TGI [65]: 3.21 µM | TGI [41]: 6.73 µM | TGI [42]: 19.8 µM | TGI [43]: 11.2 µM | TGI [44]: 14.5 µM | TGI [66]: 6.12 µM | TGI [45]: 54.2 µM
